Assay results published in the supplement of paper PMC13207355.

What was measured:
Settings in all cases: exposure time: 72 h
FT3469 [1] = normal neural stem cell line; assay: surviving fraction (nuclei count normalised to DMSO); higher = more cells surviving (less toxic)
E28 [2] = patient-derived glioblastoma stem cells of classical subtype; assay: as above
E57 [3] = patient-derived glioblastoma stem cells of mesenchymal subtype; assay: as above
E21 [4] = patient-derived glioblastoma stem cells of mesenchymal subtype; assay: as above
E34 [5] = patient-derived glioblastoma stem cells of proneural subtype; assay: as above
E31 [6] = patient-derived glioblastoma stem cells of proneural subtype; assay: as above
E13 [7] = patient-derived glioblastoma stem cells of classical subtype; assay: as above
FT3469 [8] = assay: phenotypic distance (Euclidean, principal components) from DMSO controls (arbitrary units); higher = stronger morphological change
E28 [9] = assay: as above
E57 [10] = assay: as above
E21 [11] = assay: as above
E34 [12] = assay: as above
E31 [13] = assay: as above
E13 [14] = assay: as above
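Throughout, for phenotypic distance (Euclidean, principal components) from DMSO controls: cell Painting imaging in 384-well plates, CellProfiler features reduced to at least 20 principal components, Euclidean distance versus same-plate DMSO vehicle wells (0.1% v/v), median over six images per well.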
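Throughout, for surviving fraction (nuclei count normalised to DMSO): nuclei counted by high-content imaging of Hoechst-stained cells in laminin-coated 384-well plates, relative to 0.1% DMSO vehicle wells, with staurosporine as cell-death control.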

CN(C(=O)CN(CCO)CC(=O)N(C)C(C)(C)Cc1ccccc1)C(C)(C)Cc1ccccc1 [Oxethazaine]
Settings	phenotypic distance	surviving fraction
E13 [7], 4.1 nM	–	1.09
E13 [7], 12.3 nM	–	0.968
E13 [7], 37 nM	–	0.928
E13 [7], 111.1 nM	–	1.04
E13 [7], 333.3 nM	–	1.07
E13 [7], 1000 nM	–	0.99
E13 [7], 3000 nM	–	0.951
E13 [14], 4.1 nM	0.675	–
E13 [14], 12.3 nM	0.799	–
E13 [14], 37 nM	3.23	–
E13 [14], 111.1 nM	0.762	–
E13 [14], 333.3 nM	0.641	–
E13 [14], 1000 nM	3.59	–
E13 [14], 3000 nM	0.501	–
E21 [4], 4.1 nM	–	0.958
E21 [4], 12.3 nM	–	1
E21 [4], 37 nM	–	1.03
E21 [4], 111.1 nM	–	0.955
E21 [4], 333.3 nM	–	1.12
E21 [4], 1000 nM	–	0.969
E21 [4], 3000 nM	–	1.08
E21 [11], 4.1 nM	1.27	–
E21 [11], 12.3 nM	0.301	–
E21 [11], 37 nM	0.673	–
E21 [11], 111.1 nM	0.767	–
E21 [11], 333.3 nM	0.702	–
E21 [11], 1000 nM	0.599	–
E21 [11], 3000 nM	0.942	–
E28 [2], 4.1 nM	–	1.08
E28 [2], 12.3 nM	–	0.989
E28 [2], 37 nM	–	1.05
E28 [2], 111.1 nM	–	0.943
E28 [2], 333.3 nM	–	1.15
E28 [2], 1000 nM	–	1
E28 [2], 3000 nM	–	1.16
E28 [9], 4.1 nM	0.766	–
E28 [9], 12.3 nM	0.639	–
E28 [9], 37 nM	0.581	–
E28 [9], 111.1 nM	0.521	–
E28 [9], 333.3 nM	0.535	–
E28 [9], 1000 nM	0.928	–
E28 [9], 3000 nM	0.763	–
E31 [6], 4.1 nM	–	0.961
E31 [6], 12.3 nM	–	0.975
E31 [6], 37 nM	–	1.03
E31 [6], 111.1 nM	–	0.93
E31 [6], 333.3 nM	–	1.09
E31 [6], 1000 nM	–	1.01
E31 [6], 3000 nM	–	1.01
E31 [13], 4.1 nM	1.19	–
E31 [13], 12.3 nM	0.518	–
E31 [13], 37 nM	0.559	–
E31 [13], 111.1 nM	0.664	–
E31 [13], 333.3 nM	0.743	–
E31 [13], 1000 nM	0.675	–
E31 [13], 3000 nM	1.16	–
E34 [5], 4.1 nM	–	1.02
E34 [5], 12.3 nM	–	0.88
E34 [5], 37 nM	–	1.05
E34 [5], 111.1 nM	–	0.971
E34 [5], 333.3 nM	–	1.19
E34 [5], 1000 nM	–	1.2
E34 [5], 3000 nM	–	0.914
E34 [12], 4.1 nM	0.701	–
E34 [12], 12.3 nM	0.608	–
E34 [12], 37 nM	0.585	–
E34 [12], 111.1 nM	0.716	–
E34 [12], 333.3 nM	0.77	–
E34 [12], 1000 nM	0.595	–
E34 [12], 3000 nM	0.878	–
E57 [3], 4.1 nM	–	1.01
E57 [3], 12.3 nM	–	0.936
E57 [3], 37 nM	–	0.966
E57 [3], 111.1 nM	–	0.964
E57 [3], 333.3 nM	–	0.991
E57 [3], 1000 nM	–	0.948
E57 [3], 3000 nM	–	1
E57 [10], 4.1 nM	0.467	–
E57 [10], 12.3 nM	0.582	–
E57 [10], 37 nM	0.373	–
E57 [10], 111.1 nM	0.789	–
E57 [10], 333.3 nM	0.553	–
E57 [10], 1000 nM	0.494	–
E57 [10], 3000 nM	1.79	–
FT3469 [1], 4.1 nM	–	0.961
FT3469 [1], 12.3 nM	–	0.979
FT3469 [1], 37 nM	–	1.02
FT3469 [1], 111.1 nM	–	1.05
FT3469 [1], 333.3 nM	–	0.978
FT3469 [1], 1000 nM	–	1.1
FT3469 [1], 3000 nM	–	0.933
FT3469 [8], 4.1 nM	1.79	–
FT3469 [8], 12.3 nM	0.53	–
FT3469 [8], 37 nM	0.88	–
FT3469 [8], 111.1 nM	0.534	–
FT3469 [8], 333.3 nM	0.669	–
FT3469 [8], 1000 nM	0.43	–
FT3469 [8], 3000 nM	1.12	–

Nc1ncnc2c1c(-c1ccc(Oc3ccccc3)cc1)cn2C1CCCC1
Settings	phenotypic distance	surviving fraction
E13 [7], 4.1 nM	–	0.996
E13 [7], 12.3 nM	–	1.07
E13 [7], 37 nM	–	0.893
E13 [7], 111.1 nM	–	0.884
E13 [7], 333.3 nM	–	1.02
E13 [7], 1000 nM	–	0.997
E13 [7], 3000 nM	–	0.855
E13 [14], 4.1 nM	0.425	–
E13 [14], 12.3 nM	1.04	–
E13 [14], 37 nM	0.606	–
E13 [14], 111.1 nM	0.653	–
E13 [14], 333.3 nM	0.532	–
E13 [14], 1000 nM	0.572	–
E13 [14], 3000 nM	0.738	–
E21 [4], 4.1 nM	–	0.864
E21 [4], 12.3 nM	–	1.05
E21 [4], 37 nM	–	1.03
E21 [4], 111.1 nM	–	0.984
E21 [4], 333.3 nM	–	0.967
E21 [4], 1000 nM	–	1.01
E21 [4], 3000 nM	–	0.85
E21 [11], 4.1 nM	0.617	–
E21 [11], 12.3 nM	0.6	–
E21 [11], 37 nM	0.721	–
E21 [11], 111.1 nM	0.773	–
E21 [11], 333.3 nM	0.934	–
E21 [11], 1000 nM	1.32	–
E21 [11], 3000 nM	0.949	–
E28 [2], 4.1 nM	–	1.07
E28 [2], 12.3 nM	–	0.954
E28 [2], 37 nM	–	0.988
E28 [2], 111.1 nM	–	0.704
E28 [2], 333.3 nM	–	1.2
E28 [2], 1000 nM	–	0.86
E28 [2], 3000 nM	–	0.854
E28 [9], 4.1 nM	0.587	–
E28 [9], 12.3 nM	0.603	–
E28 [9], 37 nM	0.442	–
E28 [9], 111.1 nM	0.847	–
E28 [9], 333.3 nM	0.677	–
E28 [9], 1000 nM	0.737	–
E28 [9], 3000 nM	0.765	–
E31 [6], 4.1 nM	–	1.06
E31 [6], 12.3 nM	–	1.07
E31 [6], 37 nM	–	0.999
E31 [6], 111.1 nM	–	0.95
E31 [6], 333.3 nM	–	0.97
E31 [6], 1000 nM	–	0.936
E31 [6], 3000 nM	–	0.884
E31 [13], 4.1 nM	0.613	–
E31 [13], 12.3 nM	0.704	–
E31 [13], 37 nM	0.739	–
E31 [13], 111.1 nM	0.965	–
E31 [13], 333.3 nM	0.777	–
E31 [13], 1000 nM	1.23	–
E31 [13], 3000 nM	0.466	–
E34 [5], 4.1 nM	–	1.23
E34 [5], 12.3 nM	–	0.986
E34 [5], 37 nM	–	1.18
E34 [5], 111.1 nM	–	1.03
E34 [5], 333.3 nM	–	0.93
E34 [5], 1000 nM	–	0.958
E34 [5], 3000 nM	–	0.916
E34 [12], 4.1 nM	0.654	–
E34 [12], 12.3 nM	0.927	–
E34 [12], 37 nM	0.674	–
E34 [12], 111.1 nM	0.841	–
E34 [12], 333.3 nM	0.534	–
E34 [12], 1000 nM	0.71	–
E34 [12], 3000 nM	0.746	–
E57 [3], 4.1 nM	–	0.986
E57 [3], 12.3 nM	–	1.06
E57 [3], 37 nM	–	1.08
E57 [3], 111.1 nM	–	1.06
E57 [3], 333.3 nM	–	1.03
E57 [3], 1000 nM	–	0.942
E57 [3], 3000 nM	–	0.951
E57 [10], 4.1 nM	0.461	–
E57 [10], 12.3 nM	1.24	–
E57 [10], 37 nM	1	–
E57 [10], 111.1 nM	1.29	–
E57 [10], 333.3 nM	0.478	–
E57 [10], 1000 nM	0.867	–
E57 [10], 3000 nM	0.813	–
FT3469 [1], 4.1 nM	–	0.964
FT3469 [1], 12.3 nM	–	1.04
FT3469 [1], 37 nM	–	0.976
FT3469 [1], 111.1 nM	–	0.901
FT3469 [1], 333.3 nM	–	0.875
FT3469 [1], 1000 nM	–	0.967
FT3469 [1], 3000 nM	–	0.895
FT3469 [8], 4.1 nM	0.487	–
FT3469 [8], 12.3 nM	1.13	–
FT3469 [8], 37 nM	0.764	–
FT3469 [8], 111.1 nM	0.833	–
FT3469 [8], 333.3 nM	1.17	–
FT3469 [8], 1000 nM	0.824	–
FT3469 [8], 3000 nM	0.929	–
